# According to patent US7511062B2, “Substituted 2-quinolyl-oxazoles useful as PDE4 inhibitors” (Schering Corporation, priority 2004, dated 2009):
# Target: Human PDE4 Enzyme
# Experiment: PDE4 screening assay ([3H]cAMP SPA)
# Type: biochemical
# Settings: human neutrophil PDE4, [3H]cAMP SPA
# Procedure: The neutrophils were isolated from human blood using a standard procedure, then homogenized with a glass-glass homogenizer in a buffer containing 20 mM Tris/HCl (pH 8.0), protease inhibitor cocktail tablet (Cat. No. 1836145/Boehringer Mannheim), 2 mM EDTA, 1% Triton X-100 and 0.5% deoxycholate. After stirring for 2 h at 4° C., the samples were centrifuged at 100,000 g for 1 h. The supernatants were collected, filtered and applied to Mono Q column chromatography. The fractions containing the activity of hydrolyzing cAMP were determined and pooled as the enzymatic source of the PDE4 screening assay.
# 2. PDE4 Assay and Compound Screening
# The PDE4 assays were performed using Phosphodiesterase [^3H]cAMP SPA enzyme assay kits and its procedures (Cat. No. TRKQ 7090, Amersham). The assay procedures are described briefly as follows. The diluted PDE4 enzyme, 10× assay buffer and water were mixed at a ratio of 1:1:6 (10 μl/10 μl/60 μl). 80 μl aliquots of this mixture were added into the test wells of a 96-well Microlite plate (Cat. No. 7416, ThermoLabsystems). Enzyme dilution buffer, instead of the diluted enzyme, and water were added into the wells of negative control (background). 10 μl test compounds in 10% DMSO, standard inhibitor in 10% DMSO or 10% DMSO (for positive and negative controls) were added into the corresponding wells, respectively. After a 10 min incubation at RT, the reactions were initiated by addition of 10 μl pre-diluted [^3H]cAMP into each well, then incubated at 30° C. for 30 min. The reactions were stopped by addition of 50 μl SPA beads into the test wells, then counted in a β-counter over 30 min ˜24 hr.
# 10× Assay Buffer: 500 mM Tris/HCl pH 7.5, 83 mM MgCl2, 17 mM EGTA
# [^3H]cAMP: [3H] cAMP (40-60 Ci/mmol) is diluted at a 1:200 ratio with water. The final concentration is 0.005 μCi/μl
# Yttrium SPA Beads: 500 mg of beads was reconstituted with 28 ml of water, stored at 4° C.
row,IC50 [pM],SMILES
1,1400,COc1ccc(-c2nc(C(=O)N[C@H]3CCC[C@@H]3O)c([C@H](C)N)o2)c2ccc(C(F)(F)F)nc12 [26-417]
2,1800,COc1ccc(-c2nc(C(=O)NCc3ccc(F)cc3F)c([C@@H](N)CO)o2)c2ccc(C(F)(F)F)nc12 [38-3]
3,3000,COc1ccc(-c2nc(C(=O)N3CCC(Nc4ncccn4)CC3)c([C@H](C)N)o2)c2ccc(C(F)(F)F)nc12 [26-177]
4,140,COc1ccc(-c2nc(C(=O)NCc3csc4ccccc34)c(CN)o2)c2ccc(C(F)(F)F)nc12 [13-106]
5,30,COc1ccc(-c2nc(C(=O)NC[C@@H](C)NC(=O)C3CC3)c([C@H](C)N)o2)c2ccc(C(F)(F)F)nc12 [26-444]
6,200,COc1ccc(-c2nc(C(=O)N3C[C@](O)(c4ncccn4)C[C@H]3C(=O)OC(C)C)c([C@H](C)N)o2)c2ccc(C(F)(F)F)nc12 [26-241]
7,500,COc1ccc(-c2nc(C(=O)N3CCN(C(=O)C4CC4)CC3)c([C@H](C)N)o2)c2ccc(C(F)(F)F)nc12 [26-293]
8,70,COc1ccc(-c2nc(C(=O)NC3CCCc4nccnc43)c([C@H](C)N)o2)c2ccc(C(F)(F)F)nc12 (mixture of isomers) [26-42]
9,10,COc1ccc(-c2nc(C(=O)NCc3coc4ccccc34)c([C@H](C)N)o2)c2ccc(C(F)(F)F)nc12 [26-92]
